Legend:
Conditions in all cases: Compound concentration 1000.0 nM
[1] = biological target: RAC-gamma serine/threonine-protein kinase (Homo sapiens) (UniProt Q9Y243)
[2] = biological target: 5'-AMP-activated protein kinase catalytic subunit alpha-1 (Homo sapiens) (UniProt Q13131)
[3] = biological target: Tyrosine-protein kinase Blk (Homo sapiens) (UniProt P51451)
[4] = biological target: Calcium/calmodulin-dependent protein kinase type 1 (Homo sapiens) (UniProt Q14012)
[5] = biological target: Calcium/calmodulin-dependent protein kinase type 1B (Homo sapiens) (UniProt Q6P2M8)
[6] = biological target: Serine/threonine-protein kinase Chk2 (Homo sapiens) (UniProt O96017)
[7] = biological target: Tyrosine-protein kinase CSK (Homo sapiens) (UniProt P41240)
Chain of Tyrosine-protein kinase CSK (Homo sapiens) (P41240 2-450 limits assumed): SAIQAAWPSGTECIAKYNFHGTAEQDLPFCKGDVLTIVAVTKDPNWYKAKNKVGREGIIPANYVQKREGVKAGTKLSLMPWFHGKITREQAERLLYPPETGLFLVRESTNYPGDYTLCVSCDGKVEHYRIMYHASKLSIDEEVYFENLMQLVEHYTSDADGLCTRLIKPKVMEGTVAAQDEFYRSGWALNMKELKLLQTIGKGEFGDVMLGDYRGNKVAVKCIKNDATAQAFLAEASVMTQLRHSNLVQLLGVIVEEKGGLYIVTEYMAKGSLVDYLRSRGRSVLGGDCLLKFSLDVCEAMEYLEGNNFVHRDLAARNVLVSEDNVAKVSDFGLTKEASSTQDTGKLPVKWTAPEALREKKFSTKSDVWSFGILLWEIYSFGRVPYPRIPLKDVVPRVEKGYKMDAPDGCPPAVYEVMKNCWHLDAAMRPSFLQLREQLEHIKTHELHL

[8] = biological target: Discoidin domain-containing receptor 2 (Homo sapiens) (UniProt Q16832)
[9] = biological target: Serine/threonine-protein kinase MRCK gamma (Homo sapiens) (UniProt Q6DT37)
[10] = biological target: Dual specificity tyrosine-phosphorylation-regulated kinase 1A (Homo sapiens) (UniProt Q13627)
[11] = biological target: Ephrin type-B receptor 1 (Homo sapiens) (UniProt P54762)
Chain of Ephrin type-B receptor 1 (Homo sapiens) (P54762 whole entry): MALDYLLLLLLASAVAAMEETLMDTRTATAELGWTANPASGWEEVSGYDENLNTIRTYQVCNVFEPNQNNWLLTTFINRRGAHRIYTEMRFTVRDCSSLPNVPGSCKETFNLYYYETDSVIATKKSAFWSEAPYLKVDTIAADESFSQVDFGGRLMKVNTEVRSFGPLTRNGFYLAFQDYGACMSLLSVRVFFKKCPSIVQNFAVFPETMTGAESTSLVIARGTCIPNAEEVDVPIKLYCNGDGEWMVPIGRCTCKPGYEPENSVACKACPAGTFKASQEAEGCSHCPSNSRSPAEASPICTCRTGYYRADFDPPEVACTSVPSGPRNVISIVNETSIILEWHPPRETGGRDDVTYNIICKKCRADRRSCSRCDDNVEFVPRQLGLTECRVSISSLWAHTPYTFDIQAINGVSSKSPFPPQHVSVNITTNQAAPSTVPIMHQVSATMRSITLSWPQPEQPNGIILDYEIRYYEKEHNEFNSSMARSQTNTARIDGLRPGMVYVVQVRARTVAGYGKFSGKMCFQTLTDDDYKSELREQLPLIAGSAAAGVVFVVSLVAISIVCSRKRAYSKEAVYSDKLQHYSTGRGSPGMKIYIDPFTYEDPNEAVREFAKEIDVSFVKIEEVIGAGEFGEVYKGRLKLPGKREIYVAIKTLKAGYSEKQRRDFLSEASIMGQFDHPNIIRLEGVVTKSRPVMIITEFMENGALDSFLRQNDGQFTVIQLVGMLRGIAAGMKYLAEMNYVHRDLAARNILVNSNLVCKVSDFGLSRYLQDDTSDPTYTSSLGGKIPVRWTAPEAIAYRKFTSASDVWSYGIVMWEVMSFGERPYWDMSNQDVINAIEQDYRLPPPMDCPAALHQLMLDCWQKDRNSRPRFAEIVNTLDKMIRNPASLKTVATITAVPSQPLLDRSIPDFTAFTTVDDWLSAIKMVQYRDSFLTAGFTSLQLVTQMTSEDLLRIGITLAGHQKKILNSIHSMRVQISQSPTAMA

[12] = biological target: Mitogen-activated protein kinase 7 (Homo sapiens) (UniProt Q13164)
[13] = biological target: Mitogen-activated protein kinase 15 (Homo sapiens) (UniProt Q8TD08)
[14] = test system: Fibroblast growth factor receptor 3 (Homo sapiens), P22607 [G697C]
[15] = test system: Receptor-type tyrosine-protein kinase FLT3 (Homo sapiens), P36888 [R834Q]
[16] = biological target: Tyrosine-protein kinase FRK (Homo sapiens) (UniProt P42685)
[17] = biological target: Cyclin-G-associated kinase (Homo sapiens) (UniProt O14976)
[18] = biological target: Tyrosine-protein kinase ITK/TSK (Homo sapiens) (UniProt Q08881)
[19] = biological target: Mitogen-activated protein kinase kinase kinase 15 (Homo sapiens) (UniProt Q6ZN16)
[20] = biological target: Mitogen-activated protein kinase kinase kinase 3 (Homo sapiens) (UniProt Q99759)
[21] = biological target: Mitogen-activated protein kinase kinase kinase kinase 4 (Homo sapiens) (UniProt O95819)
[22] = biological target: Serine/threonine-protein kinase MRCK alpha (Homo sapiens) (UniProt Q5VT25)
[23] = biological target: Serine/threonine-protein kinase MRCK beta (Homo sapiens) (UniProt Q9Y5S2)
[24] = biological target: Serine/threonine-protein kinase Nek2 (Homo sapiens) (UniProt P51955)
[25] = biological target: Serine/threonine-protein kinase Nek9 (Homo sapiens) (UniProt Q8TD19)
Chain of Serine/threonine-protein kinase Nek9 (Homo sapiens) (Q8TD19 whole entry): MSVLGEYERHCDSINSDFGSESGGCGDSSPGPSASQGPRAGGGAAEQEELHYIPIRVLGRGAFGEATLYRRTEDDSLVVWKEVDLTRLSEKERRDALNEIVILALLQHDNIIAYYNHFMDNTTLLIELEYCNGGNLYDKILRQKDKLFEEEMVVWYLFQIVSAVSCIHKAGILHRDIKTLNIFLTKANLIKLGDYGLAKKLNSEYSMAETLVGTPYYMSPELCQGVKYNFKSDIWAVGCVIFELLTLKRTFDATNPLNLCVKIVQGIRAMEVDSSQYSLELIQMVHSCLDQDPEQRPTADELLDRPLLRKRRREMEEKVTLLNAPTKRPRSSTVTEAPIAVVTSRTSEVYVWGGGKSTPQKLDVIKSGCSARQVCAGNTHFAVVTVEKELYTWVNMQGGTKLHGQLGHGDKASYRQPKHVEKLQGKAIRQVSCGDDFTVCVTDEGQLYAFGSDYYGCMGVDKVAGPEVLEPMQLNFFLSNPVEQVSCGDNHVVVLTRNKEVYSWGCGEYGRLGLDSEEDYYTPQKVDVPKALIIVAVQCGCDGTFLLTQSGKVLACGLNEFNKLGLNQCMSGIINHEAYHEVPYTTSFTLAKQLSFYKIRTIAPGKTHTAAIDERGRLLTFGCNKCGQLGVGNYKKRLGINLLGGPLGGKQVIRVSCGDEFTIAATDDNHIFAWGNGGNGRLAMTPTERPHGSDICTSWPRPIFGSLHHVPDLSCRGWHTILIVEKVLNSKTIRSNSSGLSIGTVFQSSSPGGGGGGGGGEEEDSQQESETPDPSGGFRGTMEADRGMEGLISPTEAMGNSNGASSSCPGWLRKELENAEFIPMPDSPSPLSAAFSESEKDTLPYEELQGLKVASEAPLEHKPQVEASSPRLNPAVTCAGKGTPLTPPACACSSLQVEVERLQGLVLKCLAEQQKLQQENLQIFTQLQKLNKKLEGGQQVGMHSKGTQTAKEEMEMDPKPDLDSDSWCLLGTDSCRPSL

[26] = biological target: Serine/threonine-protein kinase PAK 1 (Homo sapiens) (UniProt Q13153)
[27] = biological target: Platelet-derived growth factor receptor beta (Homo sapiens) (UniProt P09619)
[28] = test system: Phosphatidylinositol 4,5-bisphosphate 3-kinase catalytic subunit alpha isoform (Homo sapiens), P42336 [H1047L]
[29] = biological target: Phosphatidylinositol 4-phosphate 5-kinase type-1 gamma (Homo sapiens) (UniProt O60331)
Chain of Phosphatidylinositol 4-phosphate 5-kinase type-1 gamma (Homo sapiens) (O60331 whole entry): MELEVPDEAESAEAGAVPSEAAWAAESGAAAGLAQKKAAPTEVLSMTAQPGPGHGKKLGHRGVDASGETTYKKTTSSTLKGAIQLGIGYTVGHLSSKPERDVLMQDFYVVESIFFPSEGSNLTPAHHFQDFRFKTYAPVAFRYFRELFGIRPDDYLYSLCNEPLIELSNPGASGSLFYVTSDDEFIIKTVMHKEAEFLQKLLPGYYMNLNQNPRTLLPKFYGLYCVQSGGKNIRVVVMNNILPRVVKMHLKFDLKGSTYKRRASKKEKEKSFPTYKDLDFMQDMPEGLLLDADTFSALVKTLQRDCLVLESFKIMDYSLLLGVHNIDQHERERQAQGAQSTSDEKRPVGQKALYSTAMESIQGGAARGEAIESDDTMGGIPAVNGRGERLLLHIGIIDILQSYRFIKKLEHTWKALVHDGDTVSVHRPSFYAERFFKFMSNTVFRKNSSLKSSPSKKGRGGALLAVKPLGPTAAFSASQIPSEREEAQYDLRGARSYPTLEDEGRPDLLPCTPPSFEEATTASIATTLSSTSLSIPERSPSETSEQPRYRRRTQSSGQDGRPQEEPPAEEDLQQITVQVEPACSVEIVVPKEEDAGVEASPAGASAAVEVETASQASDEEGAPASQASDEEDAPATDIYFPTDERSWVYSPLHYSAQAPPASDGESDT

[30] = biological target: Membrane-associated tyrosine- and threonine-specific cdc2-inhibitory kinase (Homo sapiens) (UniProt Q99640)
[31] = biological target: Serine/threonine-protein kinase PknB (Mycobacterium tuberculosis) (UniProt P9WI81)
[32] = biological target: Serine/threonine-protein kinase SIK3 (Homo sapiens) (UniProt Q9Y2K2)
[33] = biological target: Ribosomal protein S6 kinase alpha-4 (Homo sapiens) (UniProt O75676)
[34] = biological target: Ribosomal protein S6 kinase alpha-5 (Homo sapiens) (UniProt O75582)
[35] = biological target: Uncharacterized serine/threonine-protein kinase SBK3 (Homo sapiens) (UniProt P0C264)
[36] = biological target: Serine/threonine-protein kinase 16 (Homo sapiens) (UniProt O75716)
Chain of Serine/threonine-protein kinase 16 (Homo sapiens) (O75716 whole entry): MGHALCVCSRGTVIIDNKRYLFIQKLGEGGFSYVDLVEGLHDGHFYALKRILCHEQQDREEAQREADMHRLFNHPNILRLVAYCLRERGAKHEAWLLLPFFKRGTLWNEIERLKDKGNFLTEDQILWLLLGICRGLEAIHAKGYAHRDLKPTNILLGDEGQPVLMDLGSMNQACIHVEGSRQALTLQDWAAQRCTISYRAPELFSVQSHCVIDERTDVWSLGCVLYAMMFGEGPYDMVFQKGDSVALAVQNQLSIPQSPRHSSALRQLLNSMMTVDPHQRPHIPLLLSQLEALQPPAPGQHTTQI

[37] = biological target: Mitogen-activated protein kinase kinase kinase 7 (Homo sapiens) (UniProt O43318)
[38] = biological target: Serine/threonine-protein kinase tousled-like 1 (Homo sapiens) (UniProt Q9UKI8)
[39] = biological target: Non-receptor tyrosine-protein kinase TNK1 (Homo sapiens) (UniProt Q13470)
[40] = biological target: Serine/threonine-protein kinase TNNI3K (Homo sapiens) (UniProt Q59H18)
Chain of Serine/threonine-protein kinase TNNI3K (Homo sapiens) (Q59H18 whole entry): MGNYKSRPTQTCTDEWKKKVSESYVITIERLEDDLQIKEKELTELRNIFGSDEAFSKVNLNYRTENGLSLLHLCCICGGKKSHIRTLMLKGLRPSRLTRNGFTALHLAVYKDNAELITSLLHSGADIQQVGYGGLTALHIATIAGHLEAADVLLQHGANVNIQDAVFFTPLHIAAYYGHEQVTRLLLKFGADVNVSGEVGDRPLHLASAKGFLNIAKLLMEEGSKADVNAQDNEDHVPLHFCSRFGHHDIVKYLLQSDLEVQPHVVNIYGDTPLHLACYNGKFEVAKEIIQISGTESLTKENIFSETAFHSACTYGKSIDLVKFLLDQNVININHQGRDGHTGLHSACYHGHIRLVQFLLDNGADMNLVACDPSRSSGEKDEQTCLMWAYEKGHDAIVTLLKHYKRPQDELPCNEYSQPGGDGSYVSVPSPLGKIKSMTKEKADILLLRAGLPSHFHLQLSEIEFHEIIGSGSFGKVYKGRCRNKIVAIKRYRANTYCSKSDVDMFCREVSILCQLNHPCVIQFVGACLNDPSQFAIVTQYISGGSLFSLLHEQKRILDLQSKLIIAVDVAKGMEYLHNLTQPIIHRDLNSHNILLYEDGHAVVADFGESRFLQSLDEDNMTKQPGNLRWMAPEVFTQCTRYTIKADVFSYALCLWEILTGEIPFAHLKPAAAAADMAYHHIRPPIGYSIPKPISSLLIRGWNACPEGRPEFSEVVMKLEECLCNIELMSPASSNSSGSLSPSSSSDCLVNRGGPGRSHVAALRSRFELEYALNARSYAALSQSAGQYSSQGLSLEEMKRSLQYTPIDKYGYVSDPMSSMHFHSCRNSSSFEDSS

[41] = biological target: Vascular endothelial growth factor receptor 2 (Homo sapiens) (UniProt P35968)
[42] = biological target: Phosphatidylinositol 3-kinase catalytic subunit type 3 (Homo sapiens) (UniProt Q8NEB9)
[43] = biological target: Mitogen-activated protein kinase kinase kinase 19 (Homo sapiens) (UniProt Q56UN5)
[44] = biological target: Mitogen-activated protein kinase kinase kinase 20 (Homo sapiens) (UniProt Q9NYL2)
Chain of Mitogen-activated protein kinase kinase kinase 20 (Homo sapiens) (Q9NYL2 2-800 limits assumed): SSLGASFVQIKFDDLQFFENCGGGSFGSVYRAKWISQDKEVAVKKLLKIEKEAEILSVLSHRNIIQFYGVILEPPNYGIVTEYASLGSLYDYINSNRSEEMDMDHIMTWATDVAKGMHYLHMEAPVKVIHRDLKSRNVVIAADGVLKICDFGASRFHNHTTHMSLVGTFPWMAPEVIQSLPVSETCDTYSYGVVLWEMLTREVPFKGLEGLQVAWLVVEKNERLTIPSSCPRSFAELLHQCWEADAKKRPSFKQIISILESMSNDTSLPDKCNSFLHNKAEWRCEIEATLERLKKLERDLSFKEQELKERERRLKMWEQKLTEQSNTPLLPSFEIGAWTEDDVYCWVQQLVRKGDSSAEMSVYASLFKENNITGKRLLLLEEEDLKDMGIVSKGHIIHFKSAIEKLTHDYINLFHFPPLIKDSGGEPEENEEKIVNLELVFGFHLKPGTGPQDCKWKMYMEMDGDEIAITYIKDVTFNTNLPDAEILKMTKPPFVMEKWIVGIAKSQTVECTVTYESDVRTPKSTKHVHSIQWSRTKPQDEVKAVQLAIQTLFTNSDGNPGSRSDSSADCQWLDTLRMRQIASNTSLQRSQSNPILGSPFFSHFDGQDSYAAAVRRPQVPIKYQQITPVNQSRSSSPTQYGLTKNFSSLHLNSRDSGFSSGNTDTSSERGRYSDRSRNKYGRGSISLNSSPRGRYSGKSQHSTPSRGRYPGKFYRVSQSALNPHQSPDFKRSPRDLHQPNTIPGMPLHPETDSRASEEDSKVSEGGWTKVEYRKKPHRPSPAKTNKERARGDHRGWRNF

For CSc1cccnc1N1CCN(Cc2nc3ccccc3[nH]2)CC1 [A-769], the residual activity [1] was 92%, the residual activity [2] was 83% and the residual activity [3] was 96%. The residual activity [4] was 100%, the residual activity [5] was 100% and the residual activity [6] was 96%. For the same molecule, the residual activity [7] was 100%, the residual activity [8] was 89% and the residual activity [9] was 100%. The residual activity [10] was 79%, the residual activity [11] was 99% and the residual activity [12] was 100%. The residual activity [13] was 82%, the residual activity [14] was 100% and the residual activity [15] was 100%. The residual activity [16] was 92%, the residual activity [17] was 99% and the residual activity [18] was 97%. It also gave a residual activity [19] of 67%, a residual activity [20] of 83% and a residual activity [21] of 95%. For the same molecule, the residual activity [22] was 100%, the residual activity [23] was 100% and the residual activity [24] was 96%. It also gave a residual activity [25] of 100%, a residual activity [26] of 100% and a residual activity [27] of 100%. The residual activity [28] was 87%, the residual activity [29] was 100% and the residual activity [30] was 100%. The residual activity [31] was 87%, the residual activity [32] was 100% and the residual activity [33] was 94%. The residual activity [34] was 100%, the residual activity [35] was 100% and the residual activity [36] was 100%. The residual activity [37] was 74%, the residual activity [38] was 100% and the residual activity [39] was 84%. For the same molecule, the residual activity [40] was 100%, the residual activity [41] was 89% and the residual activity [42] was 94%. The residual activity [43] was 72% and the residual activity [44] was 100%.
In the case of c1ccc(N2CCN(Cc3nc4ccccc4[nH]3)CC2)nc1 [ABT-724], the residual activity [1] was 100%, the residual activity [2] was 100% and the residual activity [3] was 100%. For the same molecule, the residual activity [4] was 100%, the residual activity [5] was 0% and the residual activity [6] was 100%. For the same molecule, the residual activity [7] was 100%, the residual activity [8] was 100% and the residual activity [9] was 100%. The residual activity [10] was 100%, the residual activity [11] was 100% and the residual activity [12] was 100%. For the same molecule, the residual activity [13] was 100%, the residual activity [14] was 100% and the residual activity [15] was 100%. The residual activity [16] was 100%, the residual activity [17] was 100% and the residual activity [18] was 100%. It also gave a residual activity [19] of 100%, a residual activity [20] of 100% and a residual activity [21] of 100%. For the same molecule, the residual activity [22] was 100%, the residual activity [23] was 100% and the residual activity [24] was 100%. The residual activity [25] was 100%, the residual activity [26] was 94% and the residual activity [27] was 100%. It also gave a residual activity [28] of 100%, a residual activity [29] of 93% and a residual activity [30] of 100%. It also gave a residual activity [31] of 87%, a residual activity [32] of 91% and a residual activity [33] of 100%. For the same molecule, the residual activity [34] was 100%, the residual activity [35] was 100% and the residual activity [36] was 87%. For the same molecule, the residual activity [37] was 52%, the residual activity [38] was 95% and the residual activity [39] was 59%. For the same molecule, the residual activity [40] was 100%, the residual activity [41] was 100% and the residual activity [42] was 100%. For the same molecule, the residual activity [43] was 100% and the residual activity [44] was 92%.

— ChEMBL document CHEMBL4507260 (2021)
